pEC50, pIC50: −log10 of the molar value.
What was measured:
UGT1A1 = molecular target: T1, UGT1A1 (Homo sapiens, UniProt P22309); assay: In vitro UGT1A1 inhibition, recombinant human enzyme assays (Example 5); type: biochemical
T1 sequence (P22309 26-533): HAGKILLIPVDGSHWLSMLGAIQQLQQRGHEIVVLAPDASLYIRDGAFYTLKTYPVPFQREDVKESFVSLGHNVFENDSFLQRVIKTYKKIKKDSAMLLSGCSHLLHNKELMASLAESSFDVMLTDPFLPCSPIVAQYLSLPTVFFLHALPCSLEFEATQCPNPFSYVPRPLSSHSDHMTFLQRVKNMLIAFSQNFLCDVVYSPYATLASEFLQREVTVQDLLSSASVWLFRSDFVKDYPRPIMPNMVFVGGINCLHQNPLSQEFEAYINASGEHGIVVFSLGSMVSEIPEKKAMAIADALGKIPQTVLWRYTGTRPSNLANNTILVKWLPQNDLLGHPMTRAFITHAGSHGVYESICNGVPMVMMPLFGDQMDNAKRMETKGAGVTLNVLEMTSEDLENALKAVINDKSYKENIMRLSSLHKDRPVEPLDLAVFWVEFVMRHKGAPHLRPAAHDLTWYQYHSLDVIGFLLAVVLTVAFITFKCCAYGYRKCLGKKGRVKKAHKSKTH
From the text: The term “UGT1A1 inhibitor” as used herein refers to a molecule which is capable of binding to human uridine diphosphate (UDP)-glycuronosyl transferase (UGT1A1), particularly in humans or animals and decrease the enzymatic activity of the UGT1A1. […] Whether or not a particular molecule is an UGT1A1 inhibitor can be determined by examining the molecule's IC50 in vitro in a UGT1A1 inhibition assays known in the art.
The inhibition of UGT1A1 was investigated by recombinant human enzyme assays.

ABCG2 [1] = molecular target: T2, ABCG2 (Homo sapiens, UniProt Q9UNQ0); assay: Flux assays (dye-flux, bi-directional flux, 3H-SN38 accumulation, vesicular uptake) in colon cancer cells (Example 4); type: cell-based; settings: parental and SN38-resistant HT29 and LoVo cells
T2 construct: endogenous in cells; host or cells: HT29 and LoVo, parental and SN38-resistant
T2 sequence (Q9UNQ0 1-655): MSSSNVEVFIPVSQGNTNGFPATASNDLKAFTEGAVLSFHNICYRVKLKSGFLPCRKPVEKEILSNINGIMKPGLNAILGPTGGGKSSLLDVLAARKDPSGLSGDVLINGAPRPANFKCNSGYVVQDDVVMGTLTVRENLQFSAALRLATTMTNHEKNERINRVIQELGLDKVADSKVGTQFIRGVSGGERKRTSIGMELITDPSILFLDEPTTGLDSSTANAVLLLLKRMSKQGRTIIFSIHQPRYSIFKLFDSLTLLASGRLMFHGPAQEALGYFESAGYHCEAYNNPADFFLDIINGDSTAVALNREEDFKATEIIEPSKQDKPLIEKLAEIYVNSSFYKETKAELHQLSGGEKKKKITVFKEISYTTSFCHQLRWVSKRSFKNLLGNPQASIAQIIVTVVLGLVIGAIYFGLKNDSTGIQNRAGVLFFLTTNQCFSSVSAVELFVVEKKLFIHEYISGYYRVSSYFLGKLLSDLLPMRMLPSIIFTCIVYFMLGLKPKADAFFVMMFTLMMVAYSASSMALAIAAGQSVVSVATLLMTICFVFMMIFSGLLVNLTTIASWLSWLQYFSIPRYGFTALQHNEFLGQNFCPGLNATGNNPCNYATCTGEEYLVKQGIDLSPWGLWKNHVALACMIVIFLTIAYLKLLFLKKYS
From the text: (§1) Pairs of parental (sensitive) and SN38-resistant human colon cancer cell lines (HT29 and LoVo) were used. ABCG2 overexpression and effects of SCO-101 on ABCG2 was investigated by western blot, qPCR, dye-flux assays, bi-directional flux assays, 3H-SN38 accumulation assays and vesicular uptake assays. The effect of SCO-101 on SN38 re-sensitization was investigated by cell viability assays (MTT/PrestoBlue) and clonogenic assays.

ABCG2 [2] = molecular target: T2, ABCG2; assay: Protein analysis of ABCG2 (western blot) in colon cancer cells (Example 4); type: cell-based
From the text: as §1

[3] = test system: SN38-resistant human colon cancer cell lines (HT29 and LoVo); assay: Cell viability (MTT/PrestoBlue) and clonogenic assays (Example 4); type: cell-based; settings: SN-38-resistant cells exposed to SCO-101 and SN-38
From the text: as §1

BCRP [4] = molecular target: T3, BCRP (Homo sapiens, UniProt Q9UNQ0); assay: 3H-SN-38 uptake in HT29 SN-38 resistant cell monolayers (Example 6); type: cell-based
T3 construct: endogenous in cells; host or cells: HT29 parental and HT29 SN38-resistant colorectal cancer cells
T3 sequence (Q9UNQ0 1-655): T2 sequence (Q9UNQ0 1-655)
Experimental: (§2) All treatments were investigated in three technical replicates (N=3). On the day of experimentation, the culture media was exchanged with 100 μL transport buffer (HBSS, 0.05% BSA, 10 mM HEPES, pH 7.4) and cells were incubated for 15 minutes at 37° C.
(§3) Subsequently, the blank transport buffer was exchanged with 50 μL transport buffer containing the different compounds (in 2x of the final concentration) to be tested and incubated for 15 minutes at 37° C. The uptake experiment was started by adding 50 μL of ^3H-SN38 at a concentration of 2 μCi/mL to all wells (the resulting concentration of ^3H-SN38 during the experiment was 1 μCi/mL). The uptake experiment was stopped after 15 minutes of incubation at 37° C. by removing the transport buffer from all wells.
(§4) The cell monolayers were subsequently washed twice by adding/removing ice-cold transport buffer twice and finally the cell monolayers were lysed by incubation in 100 μl of 0.1% TritonX-100 for 15 minutes at ambient temperature. Cell lysates were transferred to scintillation vials containing 2 mL of scintillation fluid (Ultima Gold, PerkinElmer). Each well was washed with 2×100 μL purified water (milliQ), which was also transferred to respective scintillation vials.

BCRP [5] = molecular target: T3, BCRP; assay: 3H-SN-38 uptake in HT29 parental cell monolayers (Example 6); type: cell-based
Experimental: as §2, §3, §4

pIC50 (UGT1A1; read-out: IC50 towards UGT1A1): ~7.00
UGT1A1 inhibition (in words) (UGT1A1; recombinant human enzyme): potent inhibitor of UGT1A1
Effect on the activity of ABCG2 in flux assays (ABCG2 [1]): inhibited the activity of ABCG2
Effect on ABCG2 protein (ABCG2 [2]): causes degradation of ABCG2
Uptake of SN-38 in the presence vs absence of SCO-101, all seeded cell densities (BCRP [4]; 25 μM SCO-101, HT29 SN-38 resistant): increased uptake
Uptake of SN-38 relative to blank HBSS transport buffer control (BCRP [4]; 25 μM test compound, HT29 SN-38 resistant, ANOVA α=0.05): significantly increased
pEC50 (BCRP [4]; HT29 SN-38 res cell monolayers, read-out: Estimated EC50-value for increase in uptake of SN-38): 5.01
Uptake of SN-38 with increasing concentrations of SCO-101 (BCRP [4]; SCO-101 100 to 0.5 μM, HT29 SN-38 resistant): concentration-dependent increase
Uptake of SN-38 in the presence vs absence of SCO-101, all seeded cell densities (BCRP [5]; 25 μM SCO-101, HT29 parental): increased uptake
Uptake of SN-38 relative to blank HBSS transport buffer control (BCRP [5]; 25 μM test compound, HT29 parental, ANOVA α=0.05): significantly increased
pEC50 (BCRP [5]; HT29 parental cell monolayers, read-out: Estimated EC50-value for increase in uptake of SN-38): 5.04
Uptake of SN-38 with increasing concentrations of SCO-101 (BCRP [5]; SCO-101 100 to 0.5 μM, HT29 parental): concentration-dependent increase
Compound: O=C(Nc1cc(C(F)(F)F)cc(C(F)(F)F)c1)Nc1ccc(Br)cc1-c1nnn[nH]1 [SCO-101]
Effect on cell viability and colony formation of the combination with SN-38 compared to either drug alone [3]: synergistic inhibitory effect
